Several values for one entry are separate records, joined by “and”; a condition that tells them apart may be missing. Equal entries are not always repeated. Toxic doses and inconclusive results are not listed.

In the test the test system is P388 leukemia ip, CD2F1 mice, survival T/C. Kind of test: NCI In Vivo Anticancer Drug Screen. Data for tumor model P388 Leukemia (intraperitoneal) in CD2F1 (CDF1) mice. The following applies: endpoint: median survival time, higher = longer survival. The method in brief:
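Mice carrying the transplanted tumor received test compound or vehicle. Survival was recorded in each group, and the value is the treated-group measurement divided by that of the vehicle-treated control group.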

The mark [1] stands for this setting: dose: 12.5 mg/kg/injection, schedule: Q01DX009 (ip), vehicle: Klucel (hydroxypropylcellulose) (HPC).
Where [2] appears, read: dose: 25.0 mg/kg/injection, schedule: Q01DX009 (ip), vehicle: Klucel (hydroxypropylcellulose) (HPC).
[3] abbreviates: dose: 50.0 mg/kg/injection, schedule: Q01DX005 (ip), vehicle: saline with Tween-80.
The mark [4] stands for this setting: dose: 100.0 mg/kg/injection, schedule: Q01DX005 (ip), vehicle: saline with Tween-80.
[5] abbreviates: dose: 50.0 mg/kg/injection, schedule: Q01DX009 (ip), vehicle: saline with Tween-80.
The mark [6] stands for this setting: dose: 100.0 mg/kg/injection, schedule: Q01DX009 (ip), vehicle: saline with Tween-80.
Setting [7] is: dose: 200.0 mg/kg/injection, schedule: Q01DX009 (ip), vehicle: saline with Tween-80.
The mark [8] stands for this setting: dose: 50.0 mg/kg/injection, schedule: Q01DX005 (ip), vehicle: Klucel (hydroxypropylcellulose) (HPC).
Setting [9] is: dose: 100.0 mg/kg/injection, schedule: Q01DX005 (ip), vehicle: Klucel (hydroxypropylcellulose) (HPC).
Setting [10] is: dose: 200.0 mg/kg/injection, schedule: Q01DX005 (ip), vehicle: Klucel (hydroxypropylcellulose) (HPC).

Take `O=[N+]([O-])c1ccc2nccc(Cl)c2c1`: the T/C is 95 % of control under setting [1] and 100 % of control under setting [2].
`Cc1cn(C)c2c1-c1oncc1CC2`: the T/C by setting is: (dose: 100.0 mg/kg/injection, schedule: Q04DX003 (ip), vehicle: Klucel (hydroxypropylcellulose) (HPC)) 100 % of control; (dose: 200.0 mg/kg/injection, schedule: Q04DX003 (ip), vehicle: Klucel (hydroxypropylcellulose) (HPC)) 100 % of control; (dose: 400.0 mg/kg/injection, schedule: Q04DX003 (ip), vehicle: Klucel (hydroxypropylcellulose) (HPC)) 100 % of control.
Take `O=c1c2ccccc2nc(-c2ccccc2)n1-c1nccs1`: the T/C runs as follows: under setting [3], 86 % of control; under setting [4], 89 % of control; (dose: 200.0 mg/kg/injection, schedule: Q01DX005 (ip), vehicle: saline with Tween-80) 91 % of control.
With `CC(C)(C)[Si](C)(C)OC(=O)Nc1ccc(N(CCCl)CCCl)cc1`, the T/C by setting is: (dose: 0.05 mg/kg/injection, schedule: Q01DX009 (ip), vehicle: saline with Tween-80) 122 % of control; (dose: 0.07 mg/kg/injection, schedule: Q01DX009 (ip), vehicle: saline with Tween-80) 105 % of control; (dose: 0.11 mg/kg/injection, schedule: Q01DX009 (ip), vehicle: saline with Tween-80) 118 % of control; (dose: 0.16 mg/kg/injection, schedule: Q01DX009 (ip), vehicle: saline with Tween-80) 123 % of control; (dose: 5.0 mg/kg/injection, schedule: Q04DX003 (ip), vehicle: distilled water + Tween-80) 153 % of control and 165 % of control; (dose: 10.0 mg/kg/injection, schedule: Q04DX003 (ip), vehicle: distilled water + Tween-80) 158 % of control and 161 % of control and 203 % of control. In addition, the T/C reads like this: (dose: 40.0 mg/kg/injection, schedule: Q04DX003 (ip), vehicle: distilled water + Tween-80) 100 % of control; (dose: 1.5 micrograms/kg/injection, schedule: Q01DX009 (ip), vehicle: saline) 95 % of control; (dose: 3.1 micrograms/kg/injection, schedule: Q01DX009 (ip), vehicle: saline) 97 % of control; (dose: 6.2 micrograms/kg/injection, schedule: Q01DX009 (ip), vehicle: saline) 102 % of control; (dose: 12.5 micrograms/kg/injection, schedule: Q01DX009 (ip), vehicle: saline) 104 % of control; (dose: 25.0 micrograms/kg/injection, schedule: Q01DX009 (ip), vehicle: saline) 94 % of control. Also, the T/C (dose: 50.0 micrograms/kg/injection, schedule: Q01DX009 (ip), vehicle: saline) was 110 % of control.
For the compound `O=c1c2cc(O)ccc2oc2cc(O)cc(O)c12`, the T/C by setting is: (dose: 10.0 mg/kg/injection, schedule: Q01DX009 (ip), vehicle: saline) 104 % of control; (dose: 20.0 mg/kg/injection, schedule: Q01DX009 (ip), vehicle: saline) 111 % of control; (dose: 40.0 mg/kg/injection, schedule: Q01DX009 (ip), vehicle: saline) 111 % of control; (dose: 80.0 mg/kg/injection, schedule: Q01DX009 (ip), vehicle: saline) 105 % of control.
As to `CCOc1cc2c3c(c(C)cc2cn1)CCC3=O`, the T/C is, setting by setting: (dose: 6.25 mg/kg/injection, schedule: Q01DX009 (ip), vehicle: distilled water + Tween-80) 96 % of control; (dose: 12.5 mg/kg/injection, schedule: Q01DX009 (ip), vehicle: distilled water + Tween-80) 100 % of control; (dose: 25.0 mg/kg/injection, schedule: Q01DX009 (ip), vehicle: distilled water + Tween-80) 114 % of control; (dose: 50.0 mg/kg/injection, schedule: Q01DX009 (ip), vehicle: distilled water + Tween-80) 98 % of control and 96 % of control; (dose: 100.0 mg/kg/injection, schedule: Q01DX009 (ip), vehicle: distilled water + Tween-80) 115 % of control and 87 % of control; (dose: 200.0 mg/kg/injection, schedule: Q01DX009 (ip), vehicle: distilled water + Tween-80) 118 % of control.
For `COc1cccc(OC)c1OCCBr`, the T/C by setting is: under setting [5], 103 % of control; under setting [6], 98 % of control; under setting [7], 100 % of control.
Turning to `O=C(CCl)N1C(=O)NC(c2ccc(Cl)cc2)(c2ccc(Cl)cc2)C1=O`, the T/C reads like this: (dose: 5.0 mg/kg/injection, schedule: Q04DX003 (ip), vehicle: other) 105 % of control; (dose: 10.0 mg/kg/injection, schedule: Q04DX003 (ip), vehicle: other) 116 % of control; (dose: 20.0 mg/kg/injection, schedule: Q04DX003 (ip), vehicle: other) 108 % of control and 123 % of control.
For `C[N+](C)(C)C1(Cc2ccccc2)c2ccccc2-c2ccc(Cl)cc21` (stereo not drawn), the T/C was 107 % of control under setting [1]; 105 % of control under setting [2]; 108 % of control and 94 % of control (dose: 50.0 mg/kg/injection, schedule: Q01DX009 (ip), vehicle: Klucel (hydroxypropylcellulose) (HPC)).
Turning to `O=C1c2ccccc2CN1Cc1ccc(Cl)c(Cl)c1`, the T/C was 96 % of control under setting [5], 89 % of control under setting [6] and 91 % of control under setting [7].
Consider `COC1=CC(=O)C=C(CO)C1=O`, for which the T/C by setting is: (dose: 1.56 mg/kg/injection, schedule: Q01DX009 (ip), vehicle: saline) 104 % of control; (dose: 3.12 mg/kg/injection, schedule: Q01DX009 (ip), vehicle: saline) 107 % of control; (dose: 6.25 mg/kg/injection, schedule: Q01DX009 (ip), vehicle: saline) 111 % of control and 94 % of control.
Turning to `COc1nc(SC)c(C#N)c(=O)[nH]1`, the T/C by setting is: (dose: 50.0 mg/kg/injection, schedule: Q01DX009 (ip), vehicle: saline) 107 % of control; (dose: 100.0 mg/kg/injection, schedule: Q01DX009 (ip), vehicle: saline) 98 % of control; (dose: 200.0 mg/kg/injection, schedule: Q01DX009 (ip), vehicle: saline) 107 % of control.
Regarding `Cc1ccc(S(=O)(=O)OC2C(OCc3ccccc3)C(OCc3ccccc3)C3CON(C)C32)cc1` (stereo not drawn), the T/C reads like this: under setting [8], 86 % of control; under setting [9], 89 % of control; under setting [10], 92 % of control.
In the case of `O=[N+]([O-])c1ccc(N2N=N[C@@H]3C4CCC(C4O)[C@@H]32)cc1` (stereo partly drawn), the T/C under setting [5] is 88 % of control, the T/C under setting [6] was 97 % of control and the T/C under setting [7] is 89 % of control.
For `CC(C)(C)[Si](C)(C)OCc1ccccc1N1C(=O)C(NC(=O)Cc2ccccc2)C1/C=C/c1ccccc1` (stereo not drawn), in that order: 99 % of control, 94 % of control and 92 % of control.
With `O=C(O)COc1c2occc2cc2ccc(=O)oc12`, the T/C is, setting by setting: (dose: 60.0 mg/kg/injection, schedule: Q01DX005 (ip), vehicle: saline with Tween-80) 97 % of control; (dose: 120.0 mg/kg/injection, schedule: Q01DX005 (ip), vehicle: saline with Tween-80) 96 % of control; (dose: 240.0 mg/kg/injection, schedule: Q01DX005 (ip), vehicle: saline with Tween-80) 100 % of control.
On to `Nc1ncnc2c1ncn2CC(O)CCl` (stereo not drawn), for which the T/C was 100 % of control under setting [8], 99 % of control under setting [9] and 100 % of control under setting [10].
As for `CN(C)CCCNc1nc(-c2cccc(C(Cl)(Cl)Cl)c2)nc(C(Cl)(Cl)Cl)n1`, the T/C is 109 % of control (dose: 25.0 mg/kg/injection, schedule: Q01DX009 (ip), vehicle: saline with Tween-80) and 111 % of control under setting [5].
In the case of `Cc1cc(=O)[nH]c2c(C)c(N)ccc12`, the T/C reads like this: (dose: 25.0 mg/kg/injection, schedule: Q01DX005 (ip), vehicle: saline with Tween-80) 95 % of control; under setting [3], 104 % of control; under setting [4], 95 % of control.
Consider `CC(=O)OC(NC(=O)c1cc(C)cc(C)c1)c1ccncc1` (stereo not drawn), for which the T/C by setting is: under setting [8], 97 % of control; under setting [9], 86 % of control.
Regarding `CCN(CC)CCN=c1c(C)nc(C#N)c(N)n1O`, the T/C was 100 % of control and 102 % of control and 105 % of control (dose: 10.0 mg/kg/injection, schedule: Q01DX009 (ip), vehicle: saline with Tween-80); 100 % of control and 118 % of control and 96 % of control (dose: 20.0 mg/kg/injection, schedule: Q01DX009 (ip), vehicle: saline with Tween-80); 98 % of control and 103 % of control (dose: 40.0 mg/kg/injection, schedule: Q01DX009 (ip), vehicle: saline with Tween-80); 98 % of control and 106 % of control (dose: 80.0 mg/kg/injection, schedule: Q01DX009 (ip), vehicle: saline with Tween-80).
As to `Cc1cc2ncn(C(=O)Nc3ccccc3)c2cc1C`, the T/C was 100 % of control (dose: 100.0 mg/kg/injection, schedule: Q04DX003 (ip), vehicle: saline with Tween-80); 90 % of control (dose: 200.0 mg/kg/injection, schedule: Q04DX003 (ip), vehicle: saline with Tween-80); 90 % of control (dose: 400.0 mg/kg/injection, schedule: Q04DX003 (ip), vehicle: saline with Tween-80).

These data come from PubChem BioAssay AID330 (DTP/NCI, 2004).
